In US11807644B2 (PMV Pharmaceuticals, Inc., priority 2020, dated 2023):

target: T1, recombinant His-tag Y220C p53 DBD protein (Homo sapiens, UniProt P04637, Y220C); assay: In vitro DNA binding activity assay (TR-FRET): binding of His-tag Y220C p53 DBD to biotin-labeled consensus DNA; assay type: biochemical; conditions: SC150 = concentration to increase DNA binding by […], His-tag Y220C p53 DBD, biotin-labeled consensus DNA
T1 construct: recombinant His-tag Y220C p53 DBD protein (amino acids #˜94-312)

Compound	Y220C SC150 (μM)
CN1CCC(Nc2cccc3c2cc(-c2ccc(CNc4ccc(S(C)(=O)=O)cc4)s2)n3CC(F)(F)F)CC1 [Compound 100B, 2-(5-{[(4-methanesulfonylphenyl)amino]methyl}thiophen-2-yl)-N-(1-methylpiperidin-4-yl)-1-(2,2,2-trifluoroethyl)-1H-indol-4-amine]	** (** = 0.1 μM ≤ SC150 < 0.5 μM)
CN1CC[C@@H](Nc2cccc3c2cc(-c2noc(CNC(=O)C4CC4)n2)n3CC(F)(F)F)[C@@H](F)C1 (racemic) [Compound 171B, (+/−)-N-{[3-(4-{[(3R,4S)-3-fluoro-1-methylpiperidin-4-yl]amino}-1-(2,2,2-trifluoroethyl)-1H-indol-2-yl)-1,2,4-oxadiazol-5-yl]methyl}cyclopropanecarboxamide]	* (* = 0 μM ≤ SC150 < 0.1 μM)
O=C(NCc1nc(-c2cc3c(NCC4CNC4)cccc3n2CC(F)(F)F)no1)C1CC1 [Compound 170B, N-{[3-(4-{[(432zetidine-3-yl)methyl]amino}-1-(2,2,2-trifluoroethyl)-1H-indol-2-yl)-1,2,4-oxadiazol-5-yl]methyl}cyclopropanecarboxamide]	* (* = 0 μM ≤ SC150 < 0.1 μM)
CN1CC[C@@H](Nc2cccc3c2cc(-c2nc(CNC(=O)c4ccccc4)cs2)n3CC(F)(F)F)[C@@H](F)C1 (racemic) [Compound 90B, N-{[2-(4-{[(3S,4R)-3-fluoro-1-methylpiperidin-4-yl]amino}-1-(2,2,2-trifluoroethyl)-1H-indol-2-yl)-1,3-thiazol-4-yl]methyl}benzamide]	**** (**** = 1 μM ≤ SC150 < 10 μM)
CN1CCC(Nc2cccc3c2cc(-c2nnc(CNc4cn[nH]c4)o2)n3CC(F)(F)F)CC1 [Compound 112B, N-(1-methylpiperidin-4-yl)-2-(5-{[(1H-pyrazol-4-yl)amino]methyl}-1,3,4-oxadiazol-2-yl)-1-(2,2,2-trifluoroethyl)-1H-indol-4-amine]	*** (*** = 0.5 μM ≤ SC150 < 1 μM)

Next, values leading:

Y220C SC150 (μM)	Compound
** (** = 0.1 μM ≤ SC150 < 0.5 μM)	CN1CC[C@@H](Nc2cccc3c2cc(-c2noc(CNS(=O)(=O)c4ccccc4)n2)n3CC(F)(F)F)[C@@H](F)C1 [Compound 221B, N-{[3-(4-{[(3S,4R)-3-fluoro-1-methylpiperidin-4-yl]amino}-1-(2,2,2-trifluoroethyl)-1H-indol-2-yl)-1,2,4-oxadiazol-5-yl]methyl}benzenesulfonamide]
* (* = 0 μM ≤ SC150 < 0.1 μM)	CCc1cc(C(=O)NCc2nc(-c3cc4c(N[C@@H]5CCN(C)C[C@@H]5F)cccc4n3CC(F)(F)F)no2)on1 [Compound 521B, 3-ethyl-N-{[3-(4-{[(3S,4R)-3-fluoro-1-methylpiperidin-4-yl]amino}-1-(2,2,2-trifluoroethyl)-1H-indol-2-yl)-1,2,4-oxadiazol-5-yl]methyl}-1,2-oxazole-5-carboxamide]
* (* = 0 μM ≤ SC150 < 0.1 μM)	Cc1c[nH]c2cc(C(=O)NCc3nc(-c4cc5c(N[C@@H]6CCN(C)C[C@@H]6F)cccc5n4CC(F)(F)F)no3)ccc12 [Compound 274B, N-{[3-(4-{[(3S,4R)-3-fluoro-1-methylpiperidin-4-yl]amino}-1-(2,2,2-trifluoroethyl)-1H-indol-2-yl)-1,2,4-oxadiazol-5-yl]methyl}-3-methyl-1H-indole-6-carboxamide]
* (* = 0 μM ≤ SC150 < 0.1 μM)	CN1CC[C@@H](Nc2cccc3c2cc(-c2noc(CNC(=O)c4cnn(C5CCC(F)C5)c4)n2)n3CC(F)(F)F)[C@@H](F)C1 (stereo partly drawn) [Compound 339B, N-{[3-(4-{[(3S,4R)-3-fluoro-1-methylpiperidin-4-yl]amino}-1-(2,2,2-trifluoroethyl)-1H-indol-2-yl)-1,2,4-oxadiazol-5-yl]methyl}-1-(3-fluorocyclopentyl)-1H-pyrazole-4-carboxamide]
